From PubChem BioAssay AID330 (DTP/NCI, 2004)
“And” between values parts separate entries of the source, which are not always exact repeats. Equal entries are not always repeated. Inconclusive results and toxic doses are left out. The calls were made as follows: active = survival T/C of 150% or more; inactive = T/C below 125% in these data.

Tested on: P388 leukemia ip, CD2F1 mice, survival T/C
Experiment: NCI In Vivo Anticancer Drug Screen. Data for tumor model P388 Leukemia (intraperitoneal) in CD2F1 (CDF1) mice
Settings: endpoint: median survival time, higher = longer survival
In short: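 Mice carrying the transplanted tumor received test compound or vehicle. Survival was recorded in each group, and the value is the treated-group measurement divided by that of the vehicle-treated control group.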

[1] = dose: 60.0 mg/kg/injection, schedule: Q01DX005 (ip), vehicle: saline with Tween-80
[2] = dose: 120.0 mg/kg/injection, schedule: Q01DX005 (ip), vehicle: saline with Tween-80
[3] = dose: 240.0 mg/kg/injection, schedule: Q01DX005 (ip), vehicle: saline with Tween-80
[4] = dose: 60.0 mg/kg/injection, schedule: Q01DX005 (ip), vehicle: saline
[5] = dose: 120.0 mg/kg/injection, schedule: Q01DX005 (ip), vehicle: saline
[6] = dose: 240.0 mg/kg/injection, schedule: Q01DX005 (ip), vehicle: saline
[7] = dose: 50.0 mg/kg/injection, schedule: Q01DX005 (ip), vehicle: saline with Tween-80
[8] = dose: 100.0 mg/kg/injection, schedule: Q01DX005 (ip), vehicle: saline with Tween-80
[9] = dose: 50.0 mg/kg/injection, schedule: Q01DX005 (ip), vehicle: saline
[10] = dose: 100.0 mg/kg/injection, schedule: Q01DX005 (ip), vehicle: saline
[11] = dose: 200.0 mg/kg/injection, schedule: Q01DX005 (ip), vehicle: saline
[12] = dose: 50.0 mg/kg/injection, schedule: Q01DX009 (ip), vehicle: Klucel (hydroxypropylcellulose) (HPC)
[13] = dose: 100.0 mg/kg/injection, schedule: Q01DX009 (ip), vehicle: Klucel (hydroxypropylcellulose) (HPC)
[14] = dose: 200.0 mg/kg/injection, schedule: Q01DX009 (ip), vehicle: Klucel (hydroxypropylcellulose) (HPC)
[15] = dose: 25.0 mg/kg/injection, schedule: Q01DX009 (ip), vehicle: saline with Tween-80
[16] = dose: 50.0 mg/kg/injection, schedule: Q01DX009 (ip), vehicle: saline with Tween-80
[17] = dose: 100.0 mg/kg/injection, schedule: Q01DX009 (ip), vehicle: saline with Tween-80
[18] = dose: 50.0 mg/kg/injection, schedule: Q01DX009 (ip), vehicle: saline
[19] = dose: 100.0 mg/kg/injection, schedule: Q01DX009 (ip), vehicle: saline
[20] = dose: 20.0 mg/kg/injection, schedule: Q01DX009 (ip), vehicle: saline with Tween-80
[21] = dose: 100.0 mg/kg/injection, schedule: Q04DX003 (ip), vehicle: saline with Tween-80
[22] = dose: 200.0 mg/kg/injection, schedule: Q04DX003 (ip), vehicle: saline with Tween-80

Measured: T/C

COc1c(OC)c(C2(O)C(=O)N(C)c3ccccc32)c(OC)c(OC)c1C1(O)C(=O)N(C)c2ccccc21 (stereo not drawn)
inactive: [1] 88 % of control | [2] 87 % of control | [3] 87 % of control

CN1CCN(Cc2oc(CO)cc(=O)c2O)CC1
inactive: [4] 103 % of control | [5] 92 % of control | [6] 104 % of control

Cc1cc(C)c(C#N)c(OCC2CCCO2)n1 (stereo not drawn)
inactive: [7] 95 % of control | [8] 95 % of control

CCOC(=O)C(=O)Nc1cccc(NC(=O)C(=O)OCC)n1
inactive: [1] 100 % of control | [2] 94 % of control

Cc1ccc(N=CNN(C)S(=O)(=O)c2ccc(C)cc2)cc1
inactive: dose: 60.0 mg/kg/injection, schedule: Q01DX005 (ip), vehicle: Klucel (hydroxypropylcellulose) (HPC) 92 % of control | dose: 120.0 mg/kg/injection, schedule: Q01DX005 (ip), vehicle: Klucel (hydroxypropylcellulose) (HPC) 108 % of control | dose: 240.0 mg/kg/injection, schedule: Q01DX005 (ip), vehicle: Klucel (hydroxypropylcellulose) (HPC) 90 % of control

CCC1(CC)C(=O)N(C)P(=O)(Oc2ccccc2)N(C)C1=O
inactive: dose: 100.0 mg/kg/injection, schedule: Q04DX002 (ip), vehicle: saline 100 % of control | dose: 200.0 mg/kg/injection, schedule: Q04DX002 (ip), vehicle: saline 103 % of control | dose: 400.0 mg/kg/injection, schedule: Q04DX002 (ip), vehicle: saline 101 % of control

CCOC(=O)C(=O)/C=C/[C@H]1[C@H](C)CC=C[C@H]1NC(=O)OCc1ccccc1
inactive: [1] 103 % of control | [2] 99 % of control | [3] 97 % of control

CC(N)/C(N)=N/O (stereo not drawn)
inactive: [9] 99 % of control | [10] 100 % of control | [11] 110 % of control

CC(=O)OCC1OC(n2c(Br)nc3c(N)ncnc32)C(OC(C)=O)C1OC(C)=O (stereo not drawn)
inactive: [7] 103 % of control | [8] 101 % of control | dose: 200.0 mg/kg/injection, schedule: Q01DX005 (ip), vehicle: saline with Tween-80 97 % of control

CCCCCCCCCC(=O)Nc1ncc([N+](=O)[O-])s1
inactive: [12] 94 % of control | [13] 91 % of control | [14] 94 % of control

CC(C)CNC12CN3CN(CN(C3)C1)C2
inactive: dose: 100.0 mg/kg/injection, schedule: Q04DX003 (ip), vehicle: saline 98 % of control | dose: 200.0 mg/kg/injection, schedule: Q04DX003 (ip), vehicle: saline 90 % of control | dose: 400.0 mg/kg/injection, schedule: Q04DX003 (ip), vehicle: saline 92 % of control

CC1(C)CC(=O)C2=C(C1)OC1=C(C(=O)CC(C)(C)C1)C2c1cccc([N+](=O)[O-])c1
inactive: [15] 104 % of control and 95 % of control | [16] 100 % of control and 93 % of control | [17] 93 % of control and 94 % of control | dose: 200.0 mg/kg/injection, schedule: Q01DX009 (ip), vehicle: saline with Tween-80 93 % of control and 95 % of control

Cn1c2ccccc2c2nnc(N/N=C/c3cccs3)nc21
inactive: dose: 400.0 mg/kg/injection, schedule: Q04DX002 (ip), vehicle: saline with Tween-80 105 % of control and 91 % of control

CN1C(=O)C(=O)N(Cc2ccco2)C1=O
inactive: [12] 97 % of control | [13] 100 % of control | [14] 101 % of control

Nc1ccc2c(=O)[nH]cnc2c1
inactive: dose: 12.0 mg/kg/injection, schedule: Q01DX005 (ip), vehicle: Klucel (hydroxypropylcellulose) (HPC) 101 % of control | dose: 25.0 mg/kg/injection, schedule: Q01DX005 (ip), vehicle: Klucel (hydroxypropylcellulose) (HPC) 108 % of control | dose: 50.0 mg/kg/injection, schedule: Q01DX005 (ip), vehicle: Klucel (hydroxypropylcellulose) (HPC) 106 % of control and 116 % of control | dose: 100.0 mg/kg/injection, schedule: Q01DX005 (ip), vehicle: Klucel (hydroxypropylcellulose) (HPC) 104 % of control

CS(=O)(=O)C(c1nc2nnc(N)n2[nH]c1=O)c1nc2nnc(N)n2[nH]c1=O
inactive: [4] 99 % of control | [5] 105 % of control | [6] 105 % of control

O=c1[nH]c2ccc(Br)cc2c(=O)o1
inactive: dose: 12.5 mg/kg/injection, schedule: Q01DX009 (ip), vehicle: saline with Tween-80 104 % of control | [15] 102 % of control | [16] 110 % of control | dose: 100.0 mg/kg/injection, schedule: Q01DX001 (ip), vehicle: other 100 % of control | [17] 114 % of control | dose: 200.0 mg/kg/injection, schedule: Q01DX001 (ip), vehicle: other 100 % of control | dose: 400.0 mg/kg/injection, schedule: Q01DX001 (ip), vehicle: other 95 % of control

O=C(NC(=S)c1cccs1)Nc1ccccc1
inactive: dose: 4.0 mg/kg/injection, schedule: Q01DX009 (ip), vehicle: saline with Tween-80 89 % of control | dose: 8.0 mg/kg/injection, schedule: Q01DX009 (ip), vehicle: saline with Tween-80 94 % of control | dose: 16.0 mg/kg/injection, schedule: Q01DX009 (ip), vehicle: saline with Tween-80 87 % of control | [16] 89 % of control | [17] 100 % of control

Cc1cc(NC(=S)SCc2ccc(Cl)cc2)c([N+](=O)[O-])cc1C
inactive: [18] 92 % of control | dose: 50.0 mg/kg/injection, schedule: Q01DX009 (ip), vehicle: suspension in saline 108 % of control | [19] 97 % of control | dose: 200.0 mg/kg/injection, schedule: Q01DX009 (ip), vehicle: saline 92 % of control | dose: 200.0 mg/kg/injection, schedule: Q01DX009 (ip), vehicle: suspension in saline 98 % of control

O=C(NCCNC(=O)[C@H]1CCCN1)[C@H]1CCCN1
inactive: [4] 98 % of control | [5] 91 % of control | [6] 93 % of control

COc1ccc(NS(=O)(=O)c2ccc(NC3OC(CO)C(O)C(O)C3NC(C)=O)cc2)nn1 (stereo not drawn)
inactive: [9] 104 % of control | [10] 100 % of control | [11] 104 % of control

C1[Se]CC12C[Se]C2
inactive: [20] 105 % of control

CCOCC(=O)[C@]1(O)Cc2c(O)c3c(c(O)c2[C@@H](OC2CC(N)C(O)C(C)O2)C1)C(=O)c1c(OC)cccc1C3=O (stereo partly drawn)
active: dose: 1.56 mg/kg/injection, schedule: Q01DX009 (ip), vehicle: water 153 % of control | dose: 3.13 mg/kg/injection, schedule: Q01DX009 (ip), vehicle: water 158 % of control and 163 % of control

N=c1c2c(ncn1CCc1ccccc1)CCN(Cc1ccccc1)C2
inactive: [20] 91 % of control | dose: 40.0 mg/kg/injection, schedule: Q01DX009 (ip), vehicle: saline with Tween-80 94 % of control

CC1CC(C)(C)N=C(CCC2CCCCCC2=O)O1 (stereo not drawn)
inactive: dose: 50.0 mg/kg/injection, schedule: Q04DX003 (ip), vehicle: saline with Tween-80 100 % of control | [21] 100 % of control | [22] 100 % of control

Cn1cc(Cc2c[nH]c3ccccc3c2=O)c2ccccc21
inactive: [1] 107 % of control | [2] 99 % of control | [3] 97 % of control

CCN(CC)CCNCc1cc(Cl)c2cccnc2c1O
inactive: [18] 93 % of control | [19] 106 % of control

[Ni+2].[S-]CC[S-]
inactive: [21] 92 % of control | [22] 108 % of control

CC(=O)OC1OC(CO)C(OCc2ccccc2)C(OCc2ccccc2)C1OC(C)=O (stereo not drawn)
inactive: dose: 4.0 mg/kg/injection, schedule: Q01DX009 (ip), vehicle: other 116 % of control | dose: 8.0 mg/kg/injection, schedule: Q01DX009 (ip), vehicle: other 104 % of control | dose: 16.0 mg/kg/injection, schedule: Q01DX009 (ip), vehicle: other 100 % of control | dose: 32.0 mg/kg/injection, schedule: Q01DX009 (ip), vehicle: other 92 % of control | dose: 50.0 mg/kg/injection, schedule: Q01DX009 (ip), vehicle: other 99 % of control | dose: 64.0 mg/kg/injection, schedule: Q01DX009 (ip), vehicle: other 98 % of control | dose: 100.0 mg/kg/injection, schedule: Q01DX009 (ip), vehicle: other 99 % of control | dose: 200.0 mg/kg/injection, schedule: Q01DX009 (ip), vehicle: other 99 % of control | dose: 400.0 mg/kg/injection, schedule: Q01DX009 (ip), vehicle: other 99 % of control
